Test results reported in patent US20050085463A1 (priority 2003, published 2005).

Columns and labels:
[1] = target: T1, M4 muscarinic receptor (Homo sapiens, UniProt P08173); test: R-SAT agonist assay; assay type: cell-based; design: expressed in transfected cells; host or cells: NIH/3T3; settings: relative to carbachol, No response/nr = no agonist activity up to 10 μM
T1 sequence (P08173 1-479): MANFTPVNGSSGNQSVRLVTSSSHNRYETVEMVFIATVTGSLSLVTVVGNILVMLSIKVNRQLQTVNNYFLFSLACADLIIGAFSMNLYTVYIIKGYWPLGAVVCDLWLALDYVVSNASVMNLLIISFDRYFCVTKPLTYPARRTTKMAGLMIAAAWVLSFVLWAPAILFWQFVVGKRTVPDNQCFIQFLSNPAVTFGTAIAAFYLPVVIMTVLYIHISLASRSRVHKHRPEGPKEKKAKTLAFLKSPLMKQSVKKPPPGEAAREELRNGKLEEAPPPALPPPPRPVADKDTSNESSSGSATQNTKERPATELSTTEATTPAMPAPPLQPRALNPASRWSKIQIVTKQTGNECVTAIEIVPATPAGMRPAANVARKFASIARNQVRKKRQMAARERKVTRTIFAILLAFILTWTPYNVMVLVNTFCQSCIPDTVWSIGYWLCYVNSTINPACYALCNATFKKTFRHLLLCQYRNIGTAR

[2] = target: T2, M5 muscarinic receptor (Homo sapiens, UniProt P08912); test: R-SAT agonist assay; assay type: cell-based; design: expressed in transfected cells; host or cells: NIH/3T3; settings: R-SAT; relative to carbachol; No response/nr = no agonist activity up to 10 μM
T2 sequence (P08912 1-532): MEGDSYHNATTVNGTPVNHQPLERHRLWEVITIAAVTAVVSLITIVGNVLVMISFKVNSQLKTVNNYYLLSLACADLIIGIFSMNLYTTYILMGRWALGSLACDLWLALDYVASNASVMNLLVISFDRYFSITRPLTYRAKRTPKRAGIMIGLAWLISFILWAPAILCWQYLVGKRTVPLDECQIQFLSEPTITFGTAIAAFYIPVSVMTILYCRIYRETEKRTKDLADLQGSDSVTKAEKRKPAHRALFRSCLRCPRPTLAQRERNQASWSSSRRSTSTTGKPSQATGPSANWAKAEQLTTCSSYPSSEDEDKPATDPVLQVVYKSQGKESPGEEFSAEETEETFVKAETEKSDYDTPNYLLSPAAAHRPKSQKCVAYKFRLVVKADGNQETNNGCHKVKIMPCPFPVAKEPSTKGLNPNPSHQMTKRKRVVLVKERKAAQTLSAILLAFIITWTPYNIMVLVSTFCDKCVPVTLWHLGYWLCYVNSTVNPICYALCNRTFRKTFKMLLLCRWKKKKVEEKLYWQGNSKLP

[3] = test system: MK-801-induced hyperactivity; test: Reversal of MK-801-induced hyperactivity; assay type: in vivo, Non-Swiss Albino (NSA) mice
Text: Clinically effective antipsychotic drugs can block the behavioral effects of non-competitive N-methyl-D-aspartate […], such as MK-801. […]. […]

[4] = test system: amphetamine-induced hyperactivity; test: Reversal of amphetamine-induced hyperactivity; assay type: in vivo, Non-Swiss Albino (NSA) mice; settings: p.o.
[5] = Serum levels during clozapine treatment of schizophrenic patients; assay type: in vivo, human
Experimental: The analysis was adjusted for baseline level of symptom severity, age, and dose, since dose was not fixed. […] Regarding co-treatment with anticholinergic agents, only two subjects in this sample were treated with benztropine. […] Lastly, ten of the patients in this study were treated with benzodiazepines at the time the levels of clozapine and NDMC were measured.
Patients were classified as treatment resistant or not by standard criteria (Kane et al 1988), and clinical ratings and neuropsychological test scores were obtained by trained raters who were blinded to plasma drug levels.

[6] = target: T3, M2 muscarinic receptor (Homo sapiens, UniProt P08172); test: R-SAT agonist assay; settings: R-SAT; relative to carbachol; No response/nr = no agonist activity up to 10 μM
T3 sequence (P08172 1-466): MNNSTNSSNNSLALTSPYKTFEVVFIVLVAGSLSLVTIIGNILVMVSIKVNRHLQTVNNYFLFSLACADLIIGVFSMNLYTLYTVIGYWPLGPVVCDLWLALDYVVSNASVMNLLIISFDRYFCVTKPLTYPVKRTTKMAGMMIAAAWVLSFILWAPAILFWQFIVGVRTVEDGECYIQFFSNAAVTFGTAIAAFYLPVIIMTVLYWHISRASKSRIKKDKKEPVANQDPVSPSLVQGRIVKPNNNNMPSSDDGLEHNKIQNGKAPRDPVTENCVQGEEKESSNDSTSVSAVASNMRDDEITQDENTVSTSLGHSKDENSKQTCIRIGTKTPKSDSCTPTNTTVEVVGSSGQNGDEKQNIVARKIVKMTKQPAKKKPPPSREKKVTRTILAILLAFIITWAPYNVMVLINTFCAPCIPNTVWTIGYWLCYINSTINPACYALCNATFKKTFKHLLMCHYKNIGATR

[7] = test system: apomorphine-induced climbing; test: Reversal of apomorphine-induced climbing; settings: s.c.
[8] = target: T4, M1 muscarinic receptor (Homo sapiens, UniProt P11229); test: R-SAT agonist assay; assay type: cell-based; design: expressed in transfected cells; host or cells: NIH/3T3
T4 sequence (P11229 1-460): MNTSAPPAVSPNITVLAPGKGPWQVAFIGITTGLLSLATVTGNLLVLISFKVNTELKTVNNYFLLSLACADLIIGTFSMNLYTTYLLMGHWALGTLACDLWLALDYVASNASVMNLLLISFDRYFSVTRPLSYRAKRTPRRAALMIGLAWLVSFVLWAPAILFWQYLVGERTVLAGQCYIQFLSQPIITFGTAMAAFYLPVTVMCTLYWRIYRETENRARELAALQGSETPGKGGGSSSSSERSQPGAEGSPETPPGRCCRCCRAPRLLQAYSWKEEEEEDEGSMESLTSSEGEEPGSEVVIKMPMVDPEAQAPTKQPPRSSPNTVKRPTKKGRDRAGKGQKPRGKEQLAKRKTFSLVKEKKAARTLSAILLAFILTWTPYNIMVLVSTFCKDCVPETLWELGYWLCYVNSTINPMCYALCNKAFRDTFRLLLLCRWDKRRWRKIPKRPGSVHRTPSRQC

[9] = target: T5, M3 muscarinic receptor (Homo sapiens, UniProt P20309); test: R-SAT agonist assay; settings: R-SAT; relative to carbachol; No response/nr = no agonist activity up to 10 μM
[10] = target: T5, M3 muscarinic receptor; test: R-SAT competitive antagonist assay; assay type: cell-based; settings: nr = no significant antagonist or inverse agonist activity up to 1 μM, nr* = nr but significant agonist activity
[11] = target: T6, α1A (Alpha 1A) adrenergic receptor (Homo sapiens, UniProt P35348); settings: R-SAT; nr = no significant antagonist or inverse agonist activity up to 1 μM; nr* = nr but significant agonist activity
T6 sequence (P35348 1-466): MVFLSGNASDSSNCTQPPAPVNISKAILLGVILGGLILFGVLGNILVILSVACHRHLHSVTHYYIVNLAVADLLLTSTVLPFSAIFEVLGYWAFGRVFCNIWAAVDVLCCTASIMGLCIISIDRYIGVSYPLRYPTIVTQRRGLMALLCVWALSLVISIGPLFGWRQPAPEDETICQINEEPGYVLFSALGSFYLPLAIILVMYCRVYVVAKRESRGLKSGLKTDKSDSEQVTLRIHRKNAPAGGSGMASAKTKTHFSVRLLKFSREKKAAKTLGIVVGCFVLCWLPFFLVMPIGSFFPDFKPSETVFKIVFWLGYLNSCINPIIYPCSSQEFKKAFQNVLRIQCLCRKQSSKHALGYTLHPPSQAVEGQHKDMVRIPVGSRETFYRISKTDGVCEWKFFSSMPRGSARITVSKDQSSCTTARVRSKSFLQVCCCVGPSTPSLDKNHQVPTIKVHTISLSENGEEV

[12] = target: T6, α1A (Alpha 1A) adrenergic receptor; test: cell-based
[13] = target: 5-HT6A receptor (Homo sapiens, UniProt P50406); test: R-SAT inverse agonist assay; settings: R-SAT; nr = no significant antagonist or inverse agonist activity up to 1 μM
[14] = target: 5-HT7A receptor (Homo sapiens, UniProt P34969); test: R-SAT inverse agonist assay
[15] = target: T7, 5-HT1A receptor (Homo sapiens, UniProt P08908); test: R-SAT competitive antagonist assay
T7 sequence (P08908 1-422): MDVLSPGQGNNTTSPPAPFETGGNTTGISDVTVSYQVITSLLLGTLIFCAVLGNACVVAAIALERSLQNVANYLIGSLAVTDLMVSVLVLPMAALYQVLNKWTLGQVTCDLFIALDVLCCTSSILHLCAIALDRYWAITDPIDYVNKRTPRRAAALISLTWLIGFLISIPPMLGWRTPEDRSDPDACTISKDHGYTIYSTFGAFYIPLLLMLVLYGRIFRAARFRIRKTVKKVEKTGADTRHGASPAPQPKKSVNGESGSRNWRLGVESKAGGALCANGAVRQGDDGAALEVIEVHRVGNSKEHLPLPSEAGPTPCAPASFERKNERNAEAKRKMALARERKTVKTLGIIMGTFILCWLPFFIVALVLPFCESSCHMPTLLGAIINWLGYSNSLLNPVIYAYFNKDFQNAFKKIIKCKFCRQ

[16] = target: T1, M4 muscarinic receptor; test: R-SAT competitive antagonist assay; settings: nr = no significant antagonist or inverse agonist activity up to 1 μM, nr* = nr but significant agonist activity
[17] = target: T2, M5 muscarinic receptor; test: R-SAT competitive antagonist assay; settings: nr = no significant antagonist or inverse agonist activity up to 1 μM, nr* = nr but significant agonist activity
[18] = target: T4, M1 muscarinic receptor; test: R-SAT competitive antagonist assay; assay type: cell-based; design: expressed in transfected cells; host or cells: NIH/3T3; settings: nr = no significant antagonist or inverse agonist activity up to 1 μM, nr* = nr but significant agonist activity
[19] = target: T3, M2 muscarinic receptor; test: R-SAT competitive antagonist assay; assay type: cell-based; design: expressed in transfected cells; host or cells: NIH/3T3; settings: nr = no significant antagonist or inverse agonist activity up to 1 μM, nr* = nr but significant agonist activity
[20] = target: T7, 5-HT1A receptor; test: R-SAT agonist assay; assay type: cell-based; design: expressed in transfected cells; host or cells: NIH/3T3; settings: relative to 8-OH-DPAT
[21] = target: human monoaminergic receptors; test: R-SAT functional profiling; assay type: cell-based; settings: data not shown
Text: It has long been appreciated that antagonism of central muscarinic receptors can attenuate the EPS induced by antipsychotics (Miller and Hiley 1974). […] .

[22] = clozapine-treated schizophrenics
[23] = clozapine-treated treatment resistant schizophrenics

T5 sequence (P20309 whole entry): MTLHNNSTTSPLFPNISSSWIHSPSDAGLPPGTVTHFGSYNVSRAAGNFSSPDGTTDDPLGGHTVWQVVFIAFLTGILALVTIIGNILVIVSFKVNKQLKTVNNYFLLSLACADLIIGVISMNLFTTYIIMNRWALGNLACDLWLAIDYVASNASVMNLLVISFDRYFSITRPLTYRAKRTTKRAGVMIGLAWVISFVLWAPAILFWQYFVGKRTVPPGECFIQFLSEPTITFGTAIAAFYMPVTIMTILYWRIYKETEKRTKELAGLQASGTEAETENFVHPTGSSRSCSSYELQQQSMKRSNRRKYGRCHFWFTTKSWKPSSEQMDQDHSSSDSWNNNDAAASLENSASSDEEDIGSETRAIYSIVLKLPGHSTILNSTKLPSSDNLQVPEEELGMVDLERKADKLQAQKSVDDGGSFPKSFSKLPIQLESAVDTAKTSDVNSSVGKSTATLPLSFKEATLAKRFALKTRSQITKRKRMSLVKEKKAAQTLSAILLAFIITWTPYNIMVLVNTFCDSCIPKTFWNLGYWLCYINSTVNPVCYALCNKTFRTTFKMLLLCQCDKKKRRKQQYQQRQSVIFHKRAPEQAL
Chain of 5-HT7A receptor (P34969 1-445 isoform P34969-2): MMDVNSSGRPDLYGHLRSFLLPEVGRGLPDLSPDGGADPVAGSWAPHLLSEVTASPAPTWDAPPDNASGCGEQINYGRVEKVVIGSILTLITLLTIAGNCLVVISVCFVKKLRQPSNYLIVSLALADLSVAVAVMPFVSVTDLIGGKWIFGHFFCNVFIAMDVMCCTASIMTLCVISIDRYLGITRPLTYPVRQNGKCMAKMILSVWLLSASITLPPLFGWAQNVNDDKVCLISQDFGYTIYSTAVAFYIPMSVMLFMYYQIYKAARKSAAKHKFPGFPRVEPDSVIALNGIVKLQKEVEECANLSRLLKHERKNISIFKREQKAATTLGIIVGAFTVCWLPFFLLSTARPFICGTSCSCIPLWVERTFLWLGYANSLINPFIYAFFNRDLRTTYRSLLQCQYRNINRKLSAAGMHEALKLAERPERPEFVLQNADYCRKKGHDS
Chain of 5-HT6A receptor (P50406 whole entry): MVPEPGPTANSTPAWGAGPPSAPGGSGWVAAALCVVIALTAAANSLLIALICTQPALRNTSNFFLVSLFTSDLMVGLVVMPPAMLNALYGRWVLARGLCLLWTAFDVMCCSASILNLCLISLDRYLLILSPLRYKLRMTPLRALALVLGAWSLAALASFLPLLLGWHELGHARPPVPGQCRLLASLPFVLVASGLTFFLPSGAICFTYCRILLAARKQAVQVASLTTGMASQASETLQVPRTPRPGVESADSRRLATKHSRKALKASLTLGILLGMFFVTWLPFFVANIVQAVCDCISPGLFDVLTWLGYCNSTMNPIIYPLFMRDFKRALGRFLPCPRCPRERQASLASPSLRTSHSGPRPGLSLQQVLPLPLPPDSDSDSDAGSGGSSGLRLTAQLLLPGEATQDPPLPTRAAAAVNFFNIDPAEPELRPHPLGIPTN

SMILES: C[N+](C)(C)CCOC(N)=O [Carbachol]
- M4 Efficacy [1]: 96 ± 3%
- M5 Efficacy [2]: 105 ± 3%

SMILES: CN1CCN(C2=Nc3cc(Cl)ccc3Nc3ccccc32)CC1 [Clozapine, 8-chloro-11-(4-methyl-1-piperazinyl)-5H-dibenzo [b,e][1,4] diazepine, reference compound]
- minimal effective dose, attenuation of MK-801-induced hyperactivity ([3]; p.o.): 3 mg/kg
- minimal effective dose, attenuation of MK-801-induced hyperactivity ([3]; s.c.): 1 mg/kg
- minimal effective dose, reduction of amphetamine-induced hyperactivity [4]: 3 mg/kg
- Serum level, All Subjects at 6 Months (92) [5, 22]: 365 ± 285 ng/mL
- Serum level, All Subjects at 6 Weeks (86) [5, 22]: 287 ± 190 ng/mL
- Serum level, Non-Responders (25) [5, 23]: 268 ± 207 ng/mL
- Serum level, Responders (26) [5, 23]: 453 ± 328 ng/mL
- Serum level, All TR Subjects (59) ([5]; clozapine-treated treatment resistant schizophrenics, drawn 12 hours after last clozapine dose): 393 ± 301 ng/mL
- M2 Efficacy [6]: 65 ± 8%
- minimal effective dose, reduction of apomorphine-induced climbing [7]: 10 mg/kg
- M5 Efficacy [2]: No response and nr

SMILES: O=C(CCCN1CCC(O)(c2ccc(Cl)cc2)CC1)c1ccc(F)cc1 [Haloperidol]
- dose that completely attenuated apomorphine-induced climbing [7]: 0.1 mg/kg

SMILES: Cc1ccc(C2(O)CCN(CCCC(=O)c3ccc(F)cc3)CC2)cc1 [Moperone, reference compound]
- EC50 ([8]; R-SAT functional agonist screen of 462-compound library, read-out: EC50 at human M1 receptor): > 1000 nM

SMILES: Cc1cc2c(s1)Nc1ccccc1N=C2N1CCNCC1 [N-desmethylolanzapine]
- M2 Efficacy [6]: No response
- M3 Efficacy [9]: No response
- M1 Efficacy ([8]; R-SAT, relative to carbachol, No response/nr = no agonist activity up to 10 μM): No response
- M4 Efficacy [1]: No response
- M5 Efficacy [2]: No response

SMILES: Cc1cc2c(s1)Nc1ccccc1N=C2N1CCN(C)CC1 [Olanzapine]
- M2 Efficacy [6]: No response
- M4 Efficacy [1]: No response
- M5 Efficacy [2]: No response

SMILES: CCCCCCOc1nsnc1C1=CCCN(C)C1 [Xanomeline]
- M4 Efficacy [1]: 116 ± 9%
- M5 Efficacy [2]: 86 ± 12%

SMILES: O=C1Cc2cc(CCN3CCN(c4nsc5ccccc45)CC3)c(Cl)cc2N1 [Ziprasidone, reference compound]
- pKi M3, competitive antagonist [10]: nr
- pKi α1A, competitive antagonist [11]: 7.4 ± 0.2
- Ki [12]: 39.8 nM
- pEC50 5HT6A, inverse agonist [13]: nr
- EC50 [14]: 50.1 nM
- pEC50 5HT7A, inverse agonist ([14]; R-SAT, nr = no significant antagonist or inverse agonist activity up to 1 μM): 7.3 ± 0.1
- Ki [15]: > 1000 nM
- pKi 5-HT1A, competitive antagonist ([15]; R-SAT, nr = no significant antagonist or inverse agonist activity up to 1 μM, nr* = nr but significant agonist activity): nr* and nr*^2
- pKi M4, competitive antagonist [16]: nr
- pKi M5, competitive antagonist [17]: nr
- pKi M1, competitive antagonist [18]: nr
- pKi M2, competitive antagonist [19]: nr
- agonist efficacy at human 5-HT1A receptors [20]: < 30%

SMILES: C[N+]1([O-])CCN(C2=Nc3cc(Cl)ccc3Nc3ccccc32)CC1 [clozapine-N-oxide]
- pKi, functional activity at human monoaminergic receptors [21]: < 6.0
